From patent US20120214822A1 (ASTRAZENECA AB, priority 2007, published 2012)
Counter-ions that a name gives are not always drawn.

Target: human active recombinant p38α-6His tagged (Homo sapiens, UniProt Q16539)
Test: P38 Alpha Enzyme Assay (AlphaScreen, biotinylated-ATF2 substrate);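 note: 0.5 nM final p38α, reaction started with ATP and run 45 min at 37 °C, phospho-ATF2 read by antibody-based AlphaScreen, background wells quenched with EDTA before ATP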
Assay type: biochemical
Conditions: p38 alpha enzyme inhibition; means of replicate determinations; 4 h pre-incubation at 37° C.; SD of assay 0.2-0.3 log units

Chain of human active recombinant p38α-6His tagged (Q16539 whole entry): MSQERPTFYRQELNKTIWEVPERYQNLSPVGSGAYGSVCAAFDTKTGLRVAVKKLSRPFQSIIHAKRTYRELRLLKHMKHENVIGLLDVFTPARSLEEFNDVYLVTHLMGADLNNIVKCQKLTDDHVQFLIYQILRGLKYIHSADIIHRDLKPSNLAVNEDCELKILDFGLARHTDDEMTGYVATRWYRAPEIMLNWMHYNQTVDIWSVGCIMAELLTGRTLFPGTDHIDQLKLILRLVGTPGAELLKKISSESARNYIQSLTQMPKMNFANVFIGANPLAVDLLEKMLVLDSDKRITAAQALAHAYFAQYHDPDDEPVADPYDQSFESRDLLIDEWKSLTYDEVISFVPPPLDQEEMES

Row | pIC50 | Compound
1 | 10.3 | CNC[C@@H](O)COc1ccccc1C(C)(C)Nc1nccn(-c2cc(C(=O)NC3CC3)cc(F)c2C)c1=O [Example 307, N-Cyclopropyl-3-fluoro-5-[3-{[1-(2-{[(2R)-2-hydroxy-3-(methylamino)propyl]oxy}phenyl)-1-methylethyl]amino}-2-oxopyrazin-1(2H)-yl]-4-methylbenzamide]
2 | 10.4 | Cc1c(F)cc(C(=O)NC2CC2)cc1-n1ccnc(NC2(c3ccccc3OCCN)CC2)c1=O [Example 314, 3-[3-({1-[2-(2-Aminoethoxy)phenyl]cyclopropyl}amino)-2-oxopyrazin-1(2H)-yl]-N-cyclopropyl-5-fluoro-4-methylbenzamide]
3 | 10.2 | CCNC[C@H](O)COc1ccccc1C(C)(C)Nc1nccn(-c2cc(C(=O)NC3CC3)cc(F)c2C)c1=O [Example 309, N-Cyclopropyl-3-[3-{[1-(2-{[(2S)-3-(ethylamino)-2-hydroxypropyl]oxy}phenyl)-1-methylethyl]amino}-2-oxopyrazin-1(2H)-yl]-5-fluoro-4-methylbenzamide]
4 | 9.7 | Cc1c(F)cc(C(=O)NC2CC2)cc1-n1ccnc(NC2(c3ccccc3OCCNC[C@@H](C)O)CC2)c1=O [Example 265, N-Cyclopropyl-3-fluoro-5-[3-[[1-[2-[2-[[(2R)-2-hydroxypropyl]amino]ethoxy]phenyl]cyclopropyl]amino]-2-oxo-1(2H)-pyrazinyl]-4-methyl-benzamide]
5 | 9.6 | CC(C)(Nc1nccn(-c2cc(C(=O)NC3CC3)ccc2Cl)c1=O)c1ccccc1OCCNCCO [Example 331, 4-Chloro-N-cyclopropyl-3-[3-{[1-(2-{2-[(2-hydroxyethyl)amino]ethoxy}phenyl)-1-methylethyl]amino}-2-oxopyrazin-1(2H)-yl]benzamide]
6 | 9.3 | CNCCOc1c(F)cccc1C1(Nc2nccn(-c3cc(C(=O)NC4CC4)ccc3C)c2=O)CC1 [Example 287, N-Cyclopropyl-3-{3-[(1-{3-fluoro-2-[2-(methylamino)ethoxy]phenyl}cyclopropyl)amino]-2-oxopyrazin-1(2H)-yl}-4-methylbenzamide]

Further lines, the compound ahead of its results:

Row | Compound | pIC50
7 | Cc1ccc(C(=O)NC2CC2)cc1-n1ccnc(N[C@@H](c2ccccc2)[C@@H](C)CN2CCC(CO)CC2)c1=O [Example 151, N-Cyclopropyl-3-[3-[[(1R,2S)-3-[4-(hydroxymethyl)-1-piperidinyl]-2-methyl-1-phenylpropyl]amino]-2-oxo-1(2H)-pyrazinyl]-4-methyl-benzamide] | 9.1
8 | Cc1ccc(C(=O)NC2CC2)cc1-n1ccnc(NCCc2ccccn2)c1=O [Example 9, N-Cyclopropyl-4-methyl-3-[2-oxo-3-[[2-(2-pyridinyl)ethyl]amino]-1(2H)-pyrazinyl]-benzamide] | 6.3
9 | Cc1ccc(C(=O)NC2CC2)cc1-n1ccnc(Oc2ccccc2)c1=O [Example 116, N-Cyclopropyl-4-methyl-3-(2-oxo-3-phenoxy-1(2H)-pyrazinyl)-benzamide] | 6.4
10 | COCCNCCOc1ccccc1C1(Nc2nccn(-c3cc(C(=O)NC4CC4)ccc3C)c2=O)CC1 [Example 231, N-Cyclopropyl-3-[3-[[1-[2-[2-[(2-methoxyethyl)amino]ethoxy]phenyl]cyclopropyl]amino]-2-oxo-1(2H)-pyrazinyl]-4-methyl-benzamide] | 9.9
11 | CONC(=O)c1ccc(C)c(-n2ccnc(N[C@@H](c3ccccc3)[C@@H](C)CO)c2=O)c1 [Example 162, 3-[3-[[(1R,2R)-3-Hydroxy-2-methyl-1-phenylpropyl]amino]-2-oxo-1(2H)-pyrazinyl]-N-methoxy-4-methyl-benzamide, trifluoroacetate] | 9.4
12 | Cc1ccc(C(=O)NC2CC2)cc1-n1ccnc(NCc2cccnc2)c1=O [Example 24, N-Cyclopropyl-4-methyl-3-[2-oxo-3-[(3-pyridinylmethyl)amino]-1(2H)-pyrazinyl]-benzamide] | 6.3
13 | Cc1ccccc1CNc1nccn(-c2cc(C(=O)NC3CC3)ccc2C)c1=O [Example 39, N-Cyclopropyl-4-methyl-3-[3-[[(2-methylphenyl)methyl]amino]-2-oxo-1(2H)-pyrazinyl]-benzamide] | 7.5
